Assay results reported in patent US9868748B2, “Thiazolopyrrolidine inhibitors of ROR- γ” (Vitae Pharmaceuticals, Inc., priority 2013, dated 2018).
Read-outs that look alike come from different tables or passages of the source.

Columns and labels:
[1] = biological target: full-length RORγt in Jurkat cells (Homo sapiens (Human), UniProt P51449); assay: RORγt 5xRORE Assay in Jurkat Cells (Assay 2); type: cell-based; settings: Nanoluc luciferase reporter, 16-18 hrs
Procedure: [formula] RORγt 5xRORE Assay in Jurkat Cells (Assay 2)
Compounds of the present invention were tested for RORγ inverse agonist activity in a cell-based, transcriptional activity assay. Secreted Nanoluc® luciferase was used as a reporter for transcriptional activity of the full-length RORγt in Jurkat cells (ATCC, Cat. # TIB-152). A reporter plasmid was constructed by inserting 5 repeats of the ROR Response Element (RORE) […] (SEQ ID NO:1) into a commercially available promoterless plasmid pNL1.3[secNluc] (Promega, Cat. # N1021) using KpnI and HindIII restriction sites. The expression plasmid for RORγt was purchased (Geneocopoeia, Cat. # EX-T6988-M02). Jurkat cells (30 million cells) were transfected with 11 μg of EX-T6988-MO2 and 26 μg of the reporter plasmid in OptiMEM® media using Lipofectamine® LTX and Plus™ reagents (Life Technologies, Cat. #15338-100). After 5-6 h of incubation at 37° C./5% CO2, the cells were collected, resuspended in phenol-red free RPMI media containing 10% (v/v) delipidated FBS (Hyclone, Cat. # SH30855.03) and dispensed into 96-well clear bottom tissue culture plates (CoStar, Cat. #3603), at 80,000 cells per well. Tested compounds were added to the cells in the same media (final concentration of DMSO was 0.1% (v/v)), and the plates were incubated at 37° C./5% CO2 for 16-18 hrs. Luciferase activity in the conditioned supernatants was determined with NanoGlo® assay reagents (Promega, Cat. # N1130).

[2] = biological target: recombinant RORγ Ligand Binding Domain (LBD) protein (Homo sapiens (Human), UniProt P51449); assay: Radio-Ligand RORγ Binding Assay (Assay 1); settings: competition with 25-hydroxy [26,27-3H]-cholesterol, SPA, read-out: RORγ Binding Ki Range*
Sequence of recombinant RORγ Ligand Binding Domain (LBD) protein (P51449 269-508): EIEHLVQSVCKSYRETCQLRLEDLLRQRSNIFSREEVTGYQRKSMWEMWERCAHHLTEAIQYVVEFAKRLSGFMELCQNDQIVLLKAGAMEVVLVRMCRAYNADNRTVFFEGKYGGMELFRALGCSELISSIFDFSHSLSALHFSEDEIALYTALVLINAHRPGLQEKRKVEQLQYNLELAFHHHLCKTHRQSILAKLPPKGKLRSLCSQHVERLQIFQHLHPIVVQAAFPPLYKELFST
Method in brief: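 Recombinant human RORγ ligand binding domain (6×His-GST fusion, 24 nM stock) competed with tritiated 25-hydroxycholesterol (8.6 nM stock) in HEPES buffer pH 7.4 with detergents and DTT; poly-Lys YSi SPA beads, room temperature, tritium SPA signal. Four-parameter IC50 from semi-log dilutions, normalised to DMSO and 10 μM T0901317, then Ki via KD equation.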

[3] = Table 9, read-out: RORγt5X IC50 Range*
[4] = Table 8, read-out: RORγt5X IC50 Range*

Sequence of full-length RORγt in Jurkat cells (P51449 other isoform, or with tags, fused parts or gaps): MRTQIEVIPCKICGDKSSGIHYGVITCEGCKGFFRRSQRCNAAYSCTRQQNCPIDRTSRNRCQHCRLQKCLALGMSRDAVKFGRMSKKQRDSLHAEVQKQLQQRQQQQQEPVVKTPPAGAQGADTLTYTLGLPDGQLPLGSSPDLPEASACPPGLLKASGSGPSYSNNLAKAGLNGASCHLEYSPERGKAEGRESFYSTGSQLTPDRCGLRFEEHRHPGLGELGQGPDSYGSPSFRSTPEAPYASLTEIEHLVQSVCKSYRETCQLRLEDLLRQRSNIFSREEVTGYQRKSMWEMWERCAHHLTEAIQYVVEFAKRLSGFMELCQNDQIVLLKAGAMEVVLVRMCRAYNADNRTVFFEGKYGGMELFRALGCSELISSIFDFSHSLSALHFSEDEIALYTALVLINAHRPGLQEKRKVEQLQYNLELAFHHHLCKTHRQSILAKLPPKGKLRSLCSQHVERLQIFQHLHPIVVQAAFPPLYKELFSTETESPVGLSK

Structure (SMILES)	IC50 [1, 3]	Ki ([2]; Table 9)	IC50 [1, 4]	Ki ([2]; Table 8)
Cc1nc(C(F)(F)F)ccc1CN1Cc2sc(NC(=O)Cc3ccc(S(C)(=O)=O)cc3F)nc2[C@@H]1C(C)C	< 100 nM	< 100 nM	–	–
CCS(=O)(=O)c1ccc(CC(=O)Nc2nc3c(s2)CN([C@@H](C)c2ccc(Br)cc2F)[C@H]3C(C)C)cc1 [I-A25]	–	–	< 100 nM	< 100 nM
CCS(=O)(=O)c1ccc(CC(=O)Nc2nc3c(s2)CN(C[C@H]2CC[C@H](C(F)(F)F)CC2)[C@H]3C(C)C)cc1 [I-A17, 2-(4-(ethylsulfonyl)phenyl)-N—((S)-4-isopropyl-5-((trans-4-(trifluoromethyl)cyclohexyl)methyl)-5,6-dihydro-4H-pyrrolo[3,4-d]thiazol-2-yl)acetamide]	–	–	< 100 nM	< 100 nM
CCS(=O)(=O)c1ccc(CNC(=O)c2nc3c(s2)CN(Cc2ccc(C(F)(F)F)cn2)[C@H]3C(C)C)cc1 [I-J4]	–	–	< 100 nM	< 100 nM
CCS(=O)(=O)c1ccc(CNC(=O)c2nc3c(s2)CN(C[C@H]2CN(C(=O)OC(C)(C)C)CCO2)[C@H]3C(C)C)cc1 (relative stereo)	100 to 1000 nM	< 100 nM	–	–
CCS(=O)(=O)c1ccc(CC(=O)Nc2nc3c(s2)CN(C[C@H]2CC[C@H](C(F)(F)F)NC2)[C@H]3C(C)C)nc1 (single isomer, unassigned) [drawing 212]	> 1000 nM	< 100 nM	–	–
CCS(=O)(=O)c1ccc(CC(=O)Nc2nc3c(s2)CN(C[C@H]2CC[C@@](C)(C#N)CC2)[C@H]3C(C)C)cc1 (single isomer, unassigned)	< 100 nM	< 100 nM	–	–
CCS(=O)(=O)c1ccc(CC(=O)Nc2nc3c(s2)CN(C[C@H]2CC[C@](OC)(C(F)(F)F)CC2)[C@H]3C(C)C)nc1 (single isomer, unassigned)	< 100 nM	< 100 nM	–	–
CCS(=O)(=O)c1ccc(CC(=O)Nc2nc3c(s2)CN(C[C@H]2CC[C@H](C(F)(F)F)N(C)C2)[C@H]3C(C)C)cc1 [I-A22]	–	–	< 100 nM	< 100 nM
CCS(=O)(=O)c1ccc(CC(=O)Nc2nc3c(s2)CN(C[C@H]2CC[C@@H](C(=O)OC)CC2)[C@H]3C(C)C)cc1 (single isomer, unassigned)	> 1000 nM	< 100 nM	–	–
CCS(=O)(=O)c1ccc(CC(=O)Nc2nc3c(s2)CN(C[C@@H]2CCCCO2)[C@H]3C(C)C)cc1 (relative stereo)	> 1000 nM	< 100 nM	–	–
CCS(=O)(=O)c1ccc(CC(=O)Nc2nc3c(s2)CN(C(C)c2cccc(C(F)(F)F)c2)[C@@H]3C(C)C)cc1 (stereo partly shown)	> 1000 nM	< 100 nM	–	–
CCS(=O)(=O)c1ccc(CC(=O)Nc2nc3c(s2)CN(C[C@@H]2CC[C@@H](C(F)(F)F)N(C4CC4)C2)[C@H]3C(C)C)cc1 (single isomer, unassigned)	> 1000 nM	< 100 nM	–	–
CCOC(=O)c1cnc(N2Cc3sc(NC(=O)Cc4ccc(S(=O)(=O)CC)cc4)nc3[C@]2(C)C(C)C)nc1C(F)(F)F	> 1000 nM	< 100 nM	–	–
CCS(=O)(=O)c1ccc(CC(=O)Nc2nc3c(s2)CN(C[C@@H]2CC[C@@H](C(F)(F)F)OC2)[C@H]3C(C)C)cc1 [I-A26]	–	–	< 100 nM	< 100 nM
CCS(=O)(=O)c1ccc(CC(=O)Nc2nc3c(s2)CN(C[C@H]2CC[C@@](OC)(C(F)(F)F)CC2)[C@H]3C(C)C)nc1 [I-C8]	–	–	< 100 nM	< 100 nM
CCS(=O)(=O)c1ccc(CC(=O)Nc2nc3c(s2)CN([C@H](C)c2ccc(C#N)cn2)[C@H]3C(C)C)cc1 (single isomer, unassigned)	< 100 nM	< 100 nM	–	–
CCS(=O)(=O)c1ccc(CC(=O)Nc2nc3c(s2)CN(C[C@H]2CC[C@H](C(N)=O)CC2)[C@H]3C(C)C)cc1	100 to 1000 nM	< 100 nM	–	–

Now from value to molecule:

IC50 [1, 3]	Ki ([2]; Table 9)	IC50 [1, 4]	Ki ([2]; Table 8)	Structure (SMILES)
100 to 1000 nM	< 100 nM	–	–	CC(C)[C@H]1c2nc(NC(=O)Cc3ccc(C(=O)O)cc3)sc2CN1Cc1ccc(Cl)cc1
–	–	< 100 nM	< 100 nM	CCS(=O)(=O)c1ccc(CC(=O)Nc2nc3c(s2)CN(Cc2ccc(-c4nnnn4C)cc2)[C@H]3C(C)C)cc1 [I-A40]
–	–	< 100 nM	< 100 nM	CCS(=O)(=O)c1ccc(CC(=O)Nc2nc3c(s2)CN(Cc2ccc(C(F)(F)F)cc2)[C@H]3C(C)C)nc1 [I-C4]
–	–	< 100 nM	< 100 nM	CCS(=O)(=O)c1ccc(CC(=O)Nc2nc3c(s2)CN(Cc2ccc(C(F)(F)F)c(OC)n2)[C@H]3C(C)C)cc1 [I-A31]
> 1000 nM	< 100 nM	–	–	CCS(=O)(=O)c1ccc(CC(=O)Nc2nc3c(s2)CN(Cc2cc(C(F)(F)F)cc(C(F)(F)F)c2)[C@@H]3C(C)C)cc1
> 1000 nM	< 100 nM	–	–	CCS(=O)(=O)c1ccc(CC(=O)Nc2nc3c(s2)CN(Cc2ccccc2)[C@@H]3C(C)C)cc1
< 100 nM	< 100 nM	–	–	CCS(=O)(=O)c1ccc(CC(=O)Nc2nc3c(s2)CN([C@H](C)c2c(F)cc(Cl)cc2F)[C@H]3C(C)C)cc1
> 1000 nM	< 100 nM	–	–	CCS(=O)(=O)c1ccc(CC(=O)Nc2nc3c(s2)CN(Cc2ccc(F)c(F)c2)[C@H]3C(C)C)cc1
–	–	< 100 nM	< 100 nM	CCS(=O)(=O)c1ccc(CC(=O)Nc2nc3c(s2)CN([C@H](C)c2ccc(Cl)cn2)[C@H]3C(C)C)cc1 [I-A47]
–	–	< 100 nM	< 100 nM	CCS(=O)(=O)c1ccc(CC(=O)Nc2nc3c(s2)CN([C@H](C)c2ccc(Cl)cc2F)[C@H]3C(C)C)cc1 [I-A38]
100 to 1000 nM	100 to 1000 nM	–	–	CC(C)[C@@H]1c2nc(NC(=O)Cc3ccc(S(C)(=O)=O)cc3)sc2CN1Cc1ccc(Cl)cc1
100 to 1000 nM	< 100 nM	–	–	CC(C)[C@H]1c2nc(NC(=O)Cc3ccc(S(C)(=O)=O)cc3)sc2CN1[C@@H](C)c1ccc(Cl)cn1 (single isomer, unassigned)
–	–	> 1000 nM	< 100 nM	CCS(=O)(=O)c1ccc(CC(=O)Nc2nc3c(s2)CN(Cc2nnc(C(F)(F)F)o2)[C@H]3C(C)C)cc1 [I-A9]
< 100 nM	< 100 nM	–	–	CCS(=O)(=O)c1ccc(CC(=O)Nc2nc3c(s2)CN(Cc2ccn(C(F)F)c(=O)c2)[C@H]3C(C)C)cc1
–	–	< 100 nM	< 100 nM	CCS(=O)(=O)c1ccc(CC(=O)Nc2nc3c(s2)CN(Cc2ccc(C)cc2)[C@H]3C(C)C)cc1 [I-A64]
–	–	< 100 nM	< 100 nM	CCS(=O)(=O)c1ccc(CC(=O)Nc2nc3c(s2)CN(Cc2cc(C)c(C#N)cn2)[C@H]3C(C)C)cc1 [I-A49]
–	–	< 100 nM	< 100 nM	CCS(=O)(=O)c1ccc(CC(=O)Nc2nc3c(s2)CN(Cc2ccc(C(=O)OC)cc2)[C@H]3C(C)C)cc1 [I-A60]
< 100 nM	< 100 nM	–	–	CCS(=O)(=O)c1ccc(CC(=O)Nc2nc3c(s2)CN(Cc2ccc(Cl)cc2)[C@H]3C(C)C)c(Cl)c1
–	–	< 100 nM	< 100 nM	CC[C@H](C)C1c2nc(NC(=O)Cc3ccc(S(C)(=O)=O)cc3)sc2CN1Cc1ccc(Cl)cn1 (stereo partly shown) [I-H3]
> 1000 nM	< 100 nM	–	–	CC(C)[C@@H]1c2nc(NC(=O)Cc3ccc(S(C)(=O)=O)cc3)sc2CN1Cc1cccc(Br)c1
–	–	< 100 nM	< 100 nM	CCS(=O)(=O)c1ccc(CC(=O)Nc2nc3c(s2)CN(Cc2ccc(-c4ccn(C)c(=O)c4)cc2)[C@H]3C(C)C)nc1 [I-C7]
–	–	< 100 nM	< 100 nM	CCS(=O)(=O)c1ccc(CC(=O)Nc2nc3c(s2)CN([C@@H](C)c2ccc(Cl)cn2)[C@H]3C(C)C)cc1 [I-A48]
< 100 nM	< 100 nM	–	–	CCS(=O)(=O)c1ccc(CC(=O)Nc2nc3c(s2)CN(Cc2ccc(Br)cc2)[C@H]3C(C)C)cc1
